Source: PubChem BioAssay (NCI)
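Step 1: Grow cells in 96-well plates. Step 2: Expose to compound for 48 hours at 5 concentrations. Step 3: Interpolate endpoints linearly; if unreached, use highest concentration. Abbreviation: GI50, concentration required for 50% inhibition of growth. TGI: total growth inhibition.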

Legend:
Assay in all cases: growth of human tumour cells (NCI), 48 h
[1] = system: PC-3 prostate
[2] = system: 786-0 renal
[3] = system: SR leukemia
[4] = system: SK-OV-3 ovarian
[5] = system: IGROV1 ovarian
[6] = system: HOP-62 NSCLC
[7] = system: LOX IMVI melanoma
[8] = system: SW-620 colon
[9] = system: HCT-116 colon
[10] = system: HS 578T breast
[11] = system: NCI/ADR-RES ovarian
[12] = system: SF-295 CNS
[13] = system: CCRF-CEM leukemia
[14] = system: MCF7 breast
[15] = system: M14 melanoma
[16] = system: UACC-257 melanoma
[17] = system: DU-145 prostate
[18] = system: NCI-H460 lung
[19] = system: A498 renal
[20] = system: HL-60(TB) leukemia
[21] = system: HOP-92 NSCLC
[22] = system: SF-268 CNS
[23] = system: OVCAR-4 ovarian
[24] = system: TK-10 renal
[25] = system: RXF 393 renal
[26] = system: CAKI-1 renal
[27] = system: U251 CNS
[28] = system: SK-MEL-2 melanoma
[29] = system: SNB-19 CNS
[30] = system: MDA-MB-231 breast
[31] = system: EKVX NSCLC
[32] = system: HCC-2998 colon
[33] = system: KM12 colon
[34] = system: MOLT-4 leukemia
[35] = system: T-47D breast
[36] = system: SF-539 CNS
[37] = system: UO-31 renal
[38] = system: SK-MEL-28 melanoma
[39] = system: UACC-62 melanoma
[40] = system: HCT-15 colon
[41] = system: NCI-H23 lung
[42] = system: K-562 leukemia
[43] = system: COLO 205 colon
[44] = system: BT-549 breast
[45] = system: ACHN renal
[46] = system: OVCAR-8 ovarian
[47] = system: NCI-H226 lung
[48] = system: MDA-MB-435
[49] = system: HT29 colon
[50] = system: SNB-75 CNS
[51] = system: SK-MEL-5 melanoma
[52] = system: A549 NSCLC
[53] = system: OVCAR-5 ovarian
[54] = system: OVCAR-3 ovarian
[55] = system: NCI-H522 lung
[56] = system: SN12C renal
[57] = system: RPMI-8226 leukemia

Structure (SMILES): O=c1[nH]c2cc(F)c(F)cc2nc1Cc1ccccc1
- TGI [1]: > 100 µM
- TGI [2]: > 100 µM
- TGI [3]: > 100 µM
- TGI [4]: > 100 µM
- TGI [5]: > 100 µM
- TGI [6]: > 100 µM
- TGI [7]: > 100 µM
- TGI [8]: > 100 µM
- TGI [9]: > 100 µM
- TGI [10]: > 100 µM
- TGI [11]: > 100 µM
- TGI [12]: > 100 µM
- TGI [13]: > 100 µM
- TGI [14]: > 100 µM
- TGI [15]: > 100 µM
- TGI [16]: > 100 µM
- TGI [17]: > 100 µM
- TGI [18]: > 100 µM
- TGI [19]: > 100 µM
- TGI [20]: > 100 µM
- TGI [21]: > 100 µM
- TGI [22]: > 100 µM
- TGI [23]: > 100 µM
- TGI [24]: > 100 µM
- TGI [25]: > 100 µM
- TGI [26]: > 100 µM
- TGI [27]: > 100 µM
- TGI [28]: > 100 µM
- TGI [29]: > 100 µM
- TGI [30]: > 100 µM
- TGI [31]: > 100 µM
- TGI [32]: > 100 µM
- TGI [33]: > 100 µM
- TGI [34]: > 100 µM
- TGI [35]: > 100 µM
- TGI [36]: > 100 µM
- TGI [37]: > 100 µM
- TGI [38]: > 100 µM
- TGI [39]: > 100 µM
- TGI [40]: > 100 µM
- TGI [41]: > 100 µM
- TGI [42]: > 100 µM
- TGI [43]: > 100 µM
- TGI [44]: > 100 µM
- TGI [45]: > 100 µM
- TGI [46]: > 100 µM
- TGI [47]: > 100 µM
- TGI [48]: > 100 µM
- TGI [49]: > 100 µM
- TGI [50]: > 100 µM
- TGI [51]: > 100 µM

Structure (SMILES): C(=C1c2ccccc2-c2ccccc21)c1ccncc1
- GI50 [1]: 13.4 µM
- TGI [1]: > 100 µM
- GI50 [2]: 8.17 µM
- TGI [2]: 22.7 µM
- GI50 [3]: 3.34 µM
- TGI [3]: 50.1 µM
- GI50 [4]: 6.76 µM
- TGI [4]: 24.5 µM
- GI50 [52]: 4.65 µM
- TGI [52]: 19.3 µM
- GI50 [6]: 5.35 µM
- TGI [6]: 24.3 µM
- GI50 [7]: 5.19 µM
- TGI [7]: 18.9 µM
- GI50 [8]: 4.22 µM
- TGI [8]: 17.1 µM
- GI50 [9]: 3.84 µM
- TGI [9]: 14.3 µM
- GI50 [10]: 3.77 µM
- TGI [10]: 14.1 µM
- GI50 [11]: 3.88 µM
- TGI [11]: 16.2 µM
- GI50 [12]: 1.98 µM
- TGI [12]: 5.28 µM
- GI50 [13]: 5.36 µM
- TGI [13]: 72.9 µM
- GI50 [14]: 3.92 µM
- TGI [14]: 14.6 µM
- GI50 [15]: 4.39 µM
- TGI [15]: 15.7 µM
- GI50 [16]: 11.6 µM
- TGI [16]: 26.7 µM
- GI50 [17]: 8.28 µM
- TGI [17]: 20.9 µM
- GI50 [18]: 3.87 µM
- TGI [18]: 13.7 µM
- GI50 [19]: 2.25 µM
- TGI [19]: 10.7 µM
- GI50 [20]: 4.33 µM
- TGI [20]: 22.2 µM
- GI50 [21]: 11.2 µM
- TGI [21]: 25.4 µM
- GI50 [22]: 6.39 µM
- TGI [22]: 19.8 µM
- GI50 [53]: 13.8 µM
- TGI [53]: 33.2 µM
- GI50 [23]: 12.1 µM
- TGI [23]: 25.6 µM
- GI50 [24]: 13 µM
- TGI [24]: 26.9 µM
- GI50 [25]: 5.69 µM
- TGI [25]: 21.7 µM
- GI50 [26]: 2.64 µM
- TGI [26]: 10.9 µM
- GI50 [27]: 3.78 µM
- TGI [27]: 16 µM
- GI50 [28]: 10.6 µM
- TGI [28]: 26.4 µM
- GI50 [29]: 5.81 µM
- TGI [29]: 19.5 µM
- GI50 [30]: 6.75 µM
- TGI [30]: 23.1 µM
- GI50 [31]: 3.48 µM
- TGI [31]: 15.4 µM
- GI50 [32]: 11.3 µM
- TGI [32]: 24.5 µM
- GI50 [33]: 3.24 µM
- TGI [33]: 11.9 µM
- GI50 [54]: 2.5 µM
- TGI [54]: 6.75 µM
- GI50 [34]: 5.04 µM
- TGI [34]: 35 µM
- GI50 [35]: 6.04 µM
- TGI [35]: 42.5 µM
- GI50 [36]: 5.62 µM
- TGI [36]: 19.4 µM
- GI50 [38]: 10.6 µM
- TGI [38]: 24.2 µM
- GI50 [39]: 5.14 µM
- TGI [39]: 18.6 µM
- GI50 [55]: 5.78 µM
- TGI [55]: 20.4 µM
- GI50 [40]: 4.51 µM
- TGI [40]: 18.9 µM
- GI50 [41]: 9.94 µM
- TGI [41]: 26.6 µM
- GI50 [42]: 4.35 µM
- TGI [42]: > 100 µM
- GI50 [43]: 5.32 µM
- TGI [43]: 18.3 µM
- GI50 [56]: 7.45 µM
- TGI [56]: 21.6 µM
- GI50 [44]: 10 µM
- TGI [44]: 22.4 µM
- GI50 [57]: 7.65 µM
- TGI [57]: 63.4 µM
- GI50 [45]: 10.6 µM
- TGI [45]: 28 µM
- GI50 [46]: 7.99 µM
- TGI [46]: 24.9 µM
- GI50 [47]: 11.6 µM
- TGI [47]: 31.7 µM
- GI50 [48]: 1.81 µM
- TGI [48]: 4.85 µM
- GI50 [49]: 4.06 µM
- TGI [49]: 13.9 µM
- GI50 [50]: 6.5 µM
- TGI [50]: 24.6 µM
- GI50 [51]: 4.64 µM
- TGI [51]: 16.7 µM
